Tested on: P12-Ichikawa
Assay: cell viability relative to DMSO control; higher = less cytotoxic
Settings: 48 h
Method in brief: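 Viability was expressed as a per-plate percentage of DMSO wells, with cell-free wells as background. Leukemia cells (NOMO1 or SEM at 500 cells/well, P12-Ichikawa at 1000 cells/well) were adapted for at least four passages in each medium and seeded in 1536-well plates (5 μl). Library compounds in DMSO were pin-dosed over an 11-point threefold series from 47 μM to 0.79 nM, and CellTiter-Glo One luminescence was read after 48 h at 37°C.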

[1] = HPLM + 10% dialyzed FBS, 0.000781 µM
[2] = HPLM + 10% dialyzed FBS, 0.00234 µM
[3] = HPLM + 10% dialyzed FBS, 0.00702 µM
[4] = HPLM + 10% dialyzed FBS, 0.0211 µM
[5] = HPLM + 10% dialyzed FBS, 0.0632 µM
[6] = HPLM + 10% dialyzed FBS, 0.19 µM
[7] = HPLM + 10% dialyzed FBS, 0.569 µM
[8] = HPLM + 10% dialyzed FBS, 1.71 µM
[9] = HPLM + 10% dialyzed FBS, 5.12 µM
[10] = HPLM + 10% dialyzed FBS, 15.4 µM
[11] = HPLM + 10% dialyzed FBS, 46.1 µM
[12] = RPMI 5 mM glucose + 10% FBS, 0.000781 µM
[13] = RPMI 5 mM glucose + 10% FBS, 0.00234 µM
[14] = RPMI 5 mM glucose + 10% FBS, 0.00702 µM
[15] = RPMI 5 mM glucose + 10% FBS, 0.0211 µM
[16] = RPMI 5 mM glucose + 10% FBS, 0.0632 µM
[17] = RPMI 5 mM glucose + 10% FBS, 0.19 µM
[18] = RPMI 5 mM glucose + 10% FBS, 0.569 µM
[19] = RPMI 5 mM glucose + 10% FBS, 1.71 µM
[20] = RPMI 5 mM glucose + 10% FBS, 5.12 µM
[21] = RPMI 5 mM glucose + 10% FBS, 15.4 µM
[22] = RPMI 5 mM glucose + 10% FBS, 46.1 µM
[23] = RPMI 5 mM glucose + 10% dialyzed FBS, 0.000781 µM
[24] = RPMI 5 mM glucose + 10% dialyzed FBS, 0.00234 µM
[25] = RPMI 5 mM glucose + 10% dialyzed FBS, 0.00702 µM
[26] = RPMI 5 mM glucose + 10% dialyzed FBS, 0.0211 µM
[27] = RPMI 5 mM glucose + 10% dialyzed FBS, 0.0632 µM
[28] = RPMI 5 mM glucose + 10% dialyzed FBS, 0.19 µM
[29] = RPMI 5 mM glucose + 10% dialyzed FBS, 0.569 µM
[30] = RPMI 5 mM glucose + 10% dialyzed FBS, 1.71 µM
[31] = RPMI 5 mM glucose + 10% dialyzed FBS, 5.12 µM
[32] = RPMI 5 mM glucose + 10% dialyzed FBS, 15.4 µM
[33] = RPMI 5 mM glucose + 10% dialyzed FBS, 46.1 µM

| Structure (SMILES) | cell viability [1] [%] | cell viability [2] [%] | cell viability [3] [%] | cell viability [4] [%] | cell viability [5] [%] | cell viability [6] [%] | cell viability [7] [%] | cell viability [8] [%] | cell viability [9] [%] | cell viability [10] [%] | cell viability [11] [%] | cell viability [12] [%] | cell viability [13] [%] | cell viability [14] [%] | cell viability [15] [%] | cell viability [16] [%] | cell viability [17] [%] | cell viability [18] [%] | cell viability [19] [%] | cell viability [20] [%] | cell viability [21] [%] | cell viability [22] [%] | cell viability [23] [%] | cell viability [24] [%] | cell viability [25] [%] | cell viability [26] [%] | cell viability [27] [%] | cell viability [28] [%] | cell viability [29] [%] | cell viability [30] [%] | cell viability [31] [%] | cell viability [32] [%] | cell viability [33] [%] |
| --- | --- | --- | --- | --- | --- | --- | --- | --- | --- | --- | --- | --- | --- | --- | --- | --- | --- | --- | --- | --- | --- | --- | --- | --- | --- | --- | --- | --- | --- | --- | --- | --- | --- |
| C[C@@H]1CC[C@@]2(CC[C@]3(C)\C(=C/C[C@@H]4[C@@]5(C)CC[C@H](O)C(C)(C)[C@@H]5CC[C@@]34C)[C@@H]2[C@H]1C)C(O)=O | 112 | 117 | 113 | 109 | 120 | 117 | 109 | 116 | 115 | 125 | 113 | 117 | 112 | 104 | 113 | 118 | 116 | 116 | 116 | 116 | 124 | 115 | 99.7 | 106 | 106 | 112 | 123 | 114 | 115 | 110 | 119 | 109 | 113 |
| O=C(/C=C/c1ccc(/C=C/C(=O)Nc2ccc(C3=NCCN3)cc2)cc1)Nc1ccc(C2=NCCN2)cc1 | 98.7 | 102 | 111 | 115 | 117 | 108 | 117 | 115 | 119 | 115 | 108 | 101 | 104 | 111 | 111 | 109 | 119 | 109 | 106 | 112 | 107 | 110 | 91.3 | 109 | 107 | 96.7 | 104 | 115 | 105 | 112 | 109 | 112 | 100 |
| Cc1c(N)nc([C@H](CC(N)=O)NC[C@@H](N)C(N)=O)nc1C(=O)N[C@H](C(=O)N[C@@H](C)[C@H](O)[C@@H](C)C(=O)N[C@@H](C(=O)NCCc1nc(-c2nc(C(=O)NCCC[S+](C)C)cs2)cs1)[C@@H](C)O)C(O[C@H]1O[C@H](CO)[C@H](O)[C@@H](O)[C@H]1O[C@H]1O[C@H](CO)[C@@H](O)[C@H](OC(N)=O)[C@@H]1O)c1c[nH]cn1 (some centres undefined) | 112 | 114 | 108 | 108 | 111 | 120 | 110 | 96.6 | 78 | 28.3 | 40.9 | 103 | 102 | 112 | 114 | 104 | 109 | 105 | 67.3 | 51.5 | 21.4 | 37 | 102 | 103 | 108 | 103 | 105 | 109 | 107 | 91.6 | 82.1 | 37.2 | 44.6 |

From the supplement of paper PMC11451515
